Among the test systems are EKVX NSCLC; HCC-2998 colon; HOP-92 NSCLC; HS 578T breast; KM12 colon; LOX IMVI melanoma; RPMI-8226 leukemia; T-47D breast; UACC-257 melanoma; MDA-MB-435.
Common to all, as to assay: NCI anticancer screen, dose series, 48 h

Structures are written as SMILES. Several values for one entry are separate records, joined by “and”; a condition that tells them apart may be missing. Identical values can stand only once.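 Tested at 5 concentrations; 48 h exposure; 96-well plates; endpoints linearly interpolated, else capped at highest concentration. Here, GI50 denotes the concentration required for 50% inhibition of growth. TGI is the concentration that stops growth completely.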

Turning to `CC(=O)O[C@H]1C(=O)[C@@]2(C)[C@H]([C@H](OC(=O)c3ccccc3)[C@]3([O-])C[C@H](OC(=O)[C@H]([O-])[C@@H](NC(=O)c4ccccc4)c4ccccc4)C(C)=C1C3(C)C)[C@]1(OC(C)=O)CO[C@@H]1C[C@@H]2[O-].[Fe+3]`, the TGI in the assay on EKVX NSCLC is 65 µM and > 100 µM; with HCC-2998 colon, 0.295 µM; in the assay on HOP-92 NSCLC, > 65 µM and 35.7 µM; in the assay on KM12 colon, 0.21 µM and 1.21 µM; with RPMI-8226 leukemia, 65 µM and > 100 µM; with T-47D breast, 65 µM and 95.7 µM. In addition, in the assay on UACC-257 melanoma, the TGI is 65 µM and > 100 µM. For the same compound, the GI50 with HCC-2998 colon was 0.0365 µM; in the assay on HOP-92 NSCLC, > 65 µM and 10.5 µM; with HS 578T breast, 0.0562 µM and 0.141 µM; in the assay with KM12 colon it was 0.0324 µM and 0.0623 µM; in the assay on LOX IMVI melanoma, 0.0219 µM and 0.107 µM; with RPMI-8226 leukemia it was 0.0294 µM and 0.074 µM. For the same compound, in the assay on T-47D breast, the GI50 is 0.0802 µM and 0.0744 µM.

For `O=C1c2ccccc2-c2c1c1ccccc1c(=O)n2CCNCCCNCCn1c2c(c3ccccc3c1=O)C(=O)c1ccccc1-2`, the GI50 in the assay with EKVX NSCLC was 1.07 µM; in the assay with HS 578T breast, 0.738 µM; in the assay on KM12 colon, 0.0193 µM; with LOX IMVI melanoma, 0.0461 µM; with MDA-MB-435 it was 0.115 µM; in the assay on RPMI-8226 leukemia it was 0.00933 µM. Moreover, the results for the GI50 with T-47D breast and in the assay on UACC-257 melanoma were 0.719 µM and 1.17 µM, respectively. The TGI in the assay on EKVX NSCLC is 3.07 µM; in the assay with HS 578T breast, 2.74 µM; with LOX IMVI melanoma it was 0.331 µM; with MDA-MB-435 it was 1.1 µM; in the assay with RPMI-8226 leukemia, 0.259 µM; with T-47D breast it was 2.12 µM. The TGI in the assay on UACC-257 melanoma was found to be 2.91 µM.

Turning to `Cc1ccc(C(=O)CC(Sc2cccc(Cl)c2Cl)c2ccc(Cl)cc2)cc1C` (centres undefined), the GI50 was 21.6 µM in the assay with EKVX NSCLC; 27.9 µM in the assay on HS 578T breast; 15.4 µM in the assay on KM12 colon; 13.5 µM with LOX IMVI melanoma; 20 µM in the assay with MDA-MB-435; 5.76 µM in the assay with RPMI-8226 leukemia. Further, the figures for the GI50 in the assay on T-47D breast and with UACC-257 melanoma were 27.1 µM and 20.9 µM, respectively. Moreover, the TGI with EKVX NSCLC stood at 42.1 µM; in the assay on HS 578T breast, 75.2 µM; with KM12 colon, 34.1 µM; in the assay with LOX IMVI melanoma it was 32.2 µM; with MDA-MB-435 it was 50 µM; with RPMI-8226 leukemia, 48.2 µM. For the same compound, the results for the TGI with T-47D breast and with UACC-257 melanoma were 76.9 µM and 48.6 µM, respectively.

Turning to `Cc1ccc2/c(=C/c3ccc(N(C)C)cc3)c3cc(-c4ccccc4)[n+](C)n3c2c1`, the GI50 is 0.0643 µM in the assay with EKVX NSCLC; under 0.0199 µM in the assay with HCC-2998 colon; 0.035 µM in the assay on HS 578T breast; 0.0209 µM in the assay with KM12 colon; under 0.01 µM in the assay with LOX IMVI melanoma; 0.037 µM in the assay on MDA-MB-435. The GI50 was 0.0956 µM in the assay on T-47D breast and 0.0307 µM with UACC-257 melanoma. The TGI in the assay with EKVX NSCLC was 7.95 µM; in the assay with HCC-2998 colon, 0.197 µM; in the assay on HS 578T breast, 2.89 µM; with KM12 colon, 0.12 µM; in the assay on LOX IMVI melanoma, over 100 µM; in the assay on MDA-MB-435, 1.66 µM. Besides, the TGI in the assay with T-47D breast was over 100 µM; with UACC-257 melanoma, 1.71 µM.

As for `Nc1ccc(SC23CC4CC(CC(C4)C2)C3)cc1`, the TGI in the assay with EKVX NSCLC, with HCC-2998 colon, with HS 578T breast, in the assay on KM12 colon, in the assay with LOX IMVI melanoma and in the assay with MDA-MB-435 was over 100 µM throughout. The TGI with RPMI-8226 leukemia, with T-47D breast and in the assay with UACC-257 melanoma was over 100 µM throughout.

With `COc1ccc(-c2cc(-c3cc(Cl)ccc3Cl)nc3nc(=S)[nH]c(N)c23)cc1`, the GI50 is 28.5 µM in the assay with EKVX NSCLC; 23.1 µM in the assay on HCC-2998 colon; 11.8 µM in the assay on HOP-92 NSCLC; 14.6 µM in the assay on HS 578T breast; 26.8 µM with KM12 colon; 14.2 µM in the assay with LOX IMVI melanoma. Besides, the GI50 with MDA-MB-435 was 3.93 µM; with RPMI-8226 leukemia it was 14.3 µM; with T-47D breast, over 100 µM. Also, the TGI with EKVX NSCLC is over 100 µM; with HCC-2998 colon it was 40.1 µM; with HOP-92 NSCLC, over 100 µM; in the assay on HS 578T breast it was 74.8 µM; with KM12 colon, over 100 µM; in the assay on LOX IMVI melanoma, 44.4 µM. The TGI in the assay on MDA-MB-435 is 17.6 µM; with RPMI-8226 leukemia, over 100 µM; with T-47D breast, over 100 µM.

Turning to `NC(N)=N/N=C/c1c(-c2ccccn2)nc2sc(Cl)cn12`, the GI50 in the assay with EKVX NSCLC was 8.95 µM; in the assay with HOP-92 NSCLC, 10 µM; in the assay on HS 578T breast, 8.91 µM; with KM12 colon, 8.05 µM; in the assay on LOX IMVI melanoma, 7.26 µM; in the assay with MDA-MB-435 it was 7.56 µM. Moreover, the GI50 with RPMI-8226 leukemia was 11.5 µM; in the assay with T-47D breast, 8.58 µM; with UACC-257 melanoma, 7.45 µM. The TGI is 16.1 µM with EKVX NSCLC; 21.3 µM with HOP-92 NSCLC; 17.3 µM in the assay with HS 578T breast; 15.1 µM in the assay on KM12 colon; 14 µM in the assay on LOX IMVI melanoma; 14.2 µM in the assay on MDA-MB-435. Besides, the TGI in the assay on RPMI-8226 leukemia was 29 µM; in the assay with T-47D breast, 23.3 µM; with UACC-257 melanoma it was 14.8 µM.

With `CCN(Cc1c(F)cccc1F)c1ccc(CO)c(Cl)c1`, the GI50 in the assay on HCC-2998 colon was 1.15 µM; in the assay on HOP-92 NSCLC, 0.162 µM; with HS 578T breast, 20.4 µM; with KM12 colon, 11.4 µM; in the assay on LOX IMVI melanoma it was 17.4 µM; in the assay on MDA-MB-435, 14.8 µM. Besides, the GI50 in the assay with RPMI-8226 leukemia is 1.1 µM; with T-47D breast it was 0.0516 µM; in the assay on UACC-257 melanoma, 0.0389 µM. The TGI with HCC-2998 colon amounted to 10.7 µM; in the assay on HOP-92 NSCLC it was 0.988 µM; with HS 578T breast it was 77.4 µM; with KM12 colon, 26.8 µM; with LOX IMVI melanoma, 32.4 µM; in the assay with MDA-MB-435, 40.9 µM. The TGI in the assay with RPMI-8226 leukemia was 41.4 µM; with T-47D breast, 0.288 µM; with UACC-257 melanoma it was 0.149 µM.

Consider `Cn1c(N)nc2c(nc(OCc3ccccc3)n2C2OC(CO)C(O)C2O)c1=O` (centres undefined), for which the TGI with EKVX NSCLC, with HOP-92 NSCLC, in the assay on HS 578T breast, in the assay on KM12 colon, with LOX IMVI melanoma and with MDA-MB-435 was over 100 µM in each case. Further, the TGI in the assay with RPMI-8226 leukemia, with T-47D breast and in the assay on UACC-257 melanoma was over 100 µM each time.

Take `CCCCCC(C(O)C#N)C(O)(C(F)(F)F)C(F)(F)F` (centres undefined): the TGI in the assay on HCC-2998 colon, with HOP-92 NSCLC, in the assay on HS 578T breast, with KM12 colon, in the assay with LOX IMVI melanoma and in the assay with MDA-MB-435 was over 10 µM throughout. For the same compound, the TGI in the assay with RPMI-8226 leukemia, with T-47D breast and with UACC-257 melanoma was over 10 µM in each case.

Regarding `COc1cc(/C=C2\CC3C4CC=C5CC(N6CCCC6)CC[C@]5(C)C4CC[C@]3(C)C2OC(C)=O)ccc1OCCN1CCCC1` (some centres undefined), the GI50 in the assay with EKVX NSCLC is 3.41 µM; with HS 578T breast, 2.38 µM; in the assay on KM12 colon, 2.27 µM; in the assay on LOX IMVI melanoma, 1.27 µM; in the assay with MDA-MB-435, 19.6 µM; with RPMI-8226 leukemia, 1.67 µM. The values for the GI50 in the assay on T-47D breast and with UACC-257 melanoma were 16.8 µM and 1.95 µM, respectively. For the same compound, the TGI in the assay with EKVX NSCLC came to 13.4 µM; with HS 578T breast, 4.54 µM; with KM12 colon it was 5.99 µM; in the assay on LOX IMVI melanoma it was 2.6 µM; in the assay with MDA-MB-435, 35.5 µM; in the assay on RPMI-8226 leukemia, 3.82 µM. In addition, the TGI turned out to be 34.5 µM with T-47D breast and 3.53 µM with UACC-257 melanoma.

Consider `CCCNCc1cc(C)cc2c1nc(N1CCNCC1)n2Cc1cc(C)c(F)c(C)c1`, for which the GI50 is 9.56 µM with EKVX NSCLC; 1.83 µM with HCC-2998 colon; 1.83 µM in the assay with HOP-92 NSCLC; 2.56 µM with HS 578T breast; 3.08 µM in the assay with KM12 colon; 1.72 µM in the assay with LOX IMVI melanoma. For the same compound, the GI50 was 1.7 µM in the assay on MDA-MB-435, 2.09 µM in the assay with RPMI-8226 leukemia and 1.88 µM in the assay with T-47D breast. Moreover, the TGI in the assay with EKVX NSCLC is 22.6 µM; in the assay on HCC-2998 colon, 3.47 µM; in the assay with HOP-92 NSCLC, 6.49 µM; in the assay with HS 578T breast, 11.6 µM; with KM12 colon, 11.7 µM; in the assay with LOX IMVI melanoma, 3.22 µM. In addition, the figures for the TGI in the assay on MDA-MB-435, in the assay with RPMI-8226 leukemia and in the assay on T-47D breast were 3.21 µM, 5.29 µM and 3.62 µM, respectively.

As to `CNC(=O)c1ccc(-c2cnc3ncc(Cc4ccc5ncccc5c4)n3n2)cc1F`, the GI50 with HCC-2998 colon was over 100 µM; in the assay with HOP-92 NSCLC it was 8.54 µM; in the assay on HS 578T breast it was 62.7 µM; with KM12 colon, over 100 µM; with LOX IMVI melanoma, over 100 µM; with MDA-MB-435, over 100 µM. The GI50 with RPMI-8226 leukemia, in the assay on T-47D breast and in the assay on UACC-257 melanoma was over 100 µM in each case. Moreover, the TGI was over 100 µM in the assay on HCC-2998 colon; 91.5 µM in the assay with HOP-92 NSCLC; over 100 µM in the assay with HS 578T breast; over 100 µM with KM12 colon; over 100 µM with LOX IMVI melanoma; over 100 µM in the assay on MDA-MB-435. Besides, the TGI with RPMI-8226 leukemia, in the assay with T-47D breast and with UACC-257 melanoma was over 100 µM in each case.
